According to patent publication US9249127B2 (Orion Corporation, priority 2012, dated 2016):
Like-named read-outs stand apart in the source and are kept apart here.

Molecular target: T1, alpha2A receptor (Homo sapiens, UniProt P08913)
T1 sequence (P08913 1-465): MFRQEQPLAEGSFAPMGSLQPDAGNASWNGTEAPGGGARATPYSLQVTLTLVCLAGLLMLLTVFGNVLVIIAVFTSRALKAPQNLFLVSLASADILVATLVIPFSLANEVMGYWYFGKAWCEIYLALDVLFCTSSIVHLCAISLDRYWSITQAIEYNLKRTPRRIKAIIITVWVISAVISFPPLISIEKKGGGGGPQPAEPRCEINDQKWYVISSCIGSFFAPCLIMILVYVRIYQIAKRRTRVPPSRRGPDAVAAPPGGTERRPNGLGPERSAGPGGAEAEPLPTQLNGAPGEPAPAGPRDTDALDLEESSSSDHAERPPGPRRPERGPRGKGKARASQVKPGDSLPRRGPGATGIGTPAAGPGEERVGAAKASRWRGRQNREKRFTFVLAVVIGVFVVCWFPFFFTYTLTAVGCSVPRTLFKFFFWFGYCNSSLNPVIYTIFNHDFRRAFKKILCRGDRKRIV
Test: Alpha2A agonistic activity in vitro
Assay type: cell-based

[1] = in vitro, read-out: Alpha2A Agonism pEC50 (converted)
[2] = Alpha2A Agonism pEC50, in vitro

SMILES	Alpha2A Intrinsic Activity (in vitro)	EC50 [1] [nM]	EC50 [2] [nM]
COCC1Cc2c(C)cccc2C(C2=NCCN2)O1 (stereo not drawn) [Example 74, 2-(5-Methyl-3-(methoxymethyl)isochroman-1-yl)-4,5-dihydro-1H-imidazole]	0.35	794	
FC(F)(F)Oc1cccc2c1CCOC2C1=NCCN1 (stereo not drawn) [Example 79, 2-(5-(Trifluoromethoxy)isochroman-1-yl)-4,5-dihydro-1H-imidazole]	0.30	398	
CC1(C2=NCCN2)SCCc2c(Br)cccc21 (stereo not drawn) [Example 66, 2-(5-Bromo-1-methylisothiochroman-1-yl)-4,5-dihydro-1H-imidazole]	0.43	1580	
COc1cccc2c1CC(C)OC2C1=NCCN1 (stereo not drawn) [Example 38, 2-(5-Methoxy-3-methylisochroman-1-yl)-4,5-dihydro-1H-imidazole]	0.92		12.6
CCc1cccc2c1CC(C)OC2C1=NCCN1 (stereo not drawn) [Example 39, 2-(5-Ethyl-3-methylisochroman-1-yl)-4,5-dihydro-1H-imidazole]	0.67		15.8
C=CCc1cccc2c1CCOC2C1=NCCN1 (stereo not drawn) [Example 6, 2-(5-Allylisochroman-1-yl)-4,5-dihydro-1H-imidazole]	0.53		39.8
CCCC1Cc2c(Br)cccc2C(C2=NCCN2)O1 (stereo not drawn) [Example 40, 2-(5-Bromo-3-propylisochroman-1-yl)-4,5-dihydro-1H-imidazole]	0.31	316	
Clc1cccc2c1CCOC2C1=NCCN1 (stereo not drawn) [Example 4, 2-(5-Chloroisochroman-1-yl)-4,5-dihydro-1H-imidazole]	0.85		7.94
Brc1cccc2c1CCSC2C1=NCCN1 (stereo not drawn) [Example 65, 2-(5-Bromoisothiochroman-1-yl)-4,5-dihydro-1H-imidazole]	0.56		79.4
FC(F)Oc1cccc2c1CCOC2C1=NCCN1 (stereo not drawn) [Example 90, 2-(5-(Difluoromethoxy)isochroman-1-yl)-4,5-dihydro-1H-imidazole]	0.66		39.8
CCC1Cc2c(Br)cccc2C(C2=NCCN2)O1 (stereo not drawn) [Example 43, 2-(5-Bromo-3-ethylisochroman-1-yl)-4,5-dihydro-1H-imidazole]	0.58		50.1
CC1Cc2c(Cl)cccc2C(C2=NCCN2)O1 (stereo not drawn) [Example 26, 2-(5-Chloro-3-methylisochroman-1-yl)-4,5-dihydro-1H-imidazole]	0.82		3.98
CC#Cc1cccc2c1CCOC2C1=NCCN1 (stereo not drawn) [Example 55, 2-(5-(Prop-1-yn-1-yl)isochroman-1-yl)-4,5-dihydro-1H-imidazole]	0.80	126	
C[C@@H]1Cc2c(Cl)cccc2C(C2=NCCN2)O1 (stereo partly drawn) [Example 33, 2-((3R)-5-chloro-3-methylisochroman-1-yl)-4,5-dihydro-1H-imidazole]	0.93		1.58
CCc1cccc2c1C[C@@H](CC)OC2C1=NCCN1 (stereo partly drawn) [Example 47, 2-((3R)-3,5-diethylisochroman-1-yl)-4,5-dihydro-1H-imidazole]	0.22	2000	
CC(O)c1cccc2c1CCOC2C1=NCCN1 (stereo not drawn) [Example 58, 1-(1-(4,5-Dihydro-1H-imidazol-2-yl)isochroman-5-yl)ethanol]	0.47		
C[C@H]1Cc2c(Cl)cccc2C(C2=NCCN2)O1 (stereo partly drawn) [Example 34, 2-((3S)-5-chloro-3-methylisochroman-1-yl)-4,5-dihydro-1H-imidazole]	0.78		63.1
C[C@@H]1Cc2c(OC(F)F)cccc2C(C2=NCCN2)O1 (stereo partly drawn) [Example 93, 2-((3R)-5-(difluoromethoxy)-3-methylisochroman-1-yl)-4,5-dihydro-1H-imidazole]	0.64		31.6
C[C@@H]1Cc2c(OC(F)(F)F)cccc2C(C2=NCCN2)O1 (stereo partly drawn) [Example 49, 2-((3R)-3-methyl-5-(trifluoromethoxy)isochroman-1-yl)-4,5-dihydro-1H-imidazole]	0.35	126	
CCc1cccc2c1CCOC2C1=NCCN1 (single isomer, unassigned) [Example 80]	0.58	251	
COc1cccc2c1C[C@@H](C)OC2(C)C1=NCCN1 (stereo partly drawn) [Example 71, 2-((3R)-5-methoxy-1,3-dimethylisochroman-1-yl)-4,5-dihydro-1H-imidazole]	0.33	2000	

SMILES	Alpha2A Intrinsic Activity (in vitro)	EC50 [1] [nM]	EC50 [2] [nM]
Cc1cccc2c1CC(C)OC2C1=NCCN1 (stereo not drawn) [Example 25, 2-(3,5-Dimethylisochroman-1-yl)-4,5-dihydro-1H-imidazole]	0.82		3.16
CC1(C2=NCCN2)OCc2cccc3cccc1c23 (single isomer, unassigned) [Example 103, 2-(1-methyl-1,3-dihydrobenzo[de]isochromen-1-yl)-4,5-dihydro-1H-imidazole]	0.74		6.31
OCc1cccc2c1CCOC2C1=NCCN1 (stereo not drawn) [Example 10, (1-(4,5-Dihydro-1H-imidazol-2-yl)isochroman-5-yl)methanol]	0.90		20
c1cc2c3c(c1)C(C1=NCCN1)OCC3CCCC2 (stereo not drawn) [Example 57, 2-(3,7,8,9,10,10a-Hexahydro-1H-cyclohepta[de]isochromen-3-yl)-4,5-dihydro-1H-imidazole]	0.11	2000	
CCC1Cc2c(OC)cccc2C(C2=NCCN2)O1 (stereo not drawn) [Example 46, 2-(3-Ethyl-5-methoxyisochroman-1-yl)-4,5-dihydro-1H-imidazole]	0.45		79.4
Cc1cccc2c1C[C@H](C)OC2C1=NCCN1 (stereo partly drawn) [Example 37, 2-((3S)-3,5-dimethylisochroman-1-yl)-4,5-dihydro-1H-imidazole]	0.63	316	
CCC1Cc2c(Br)cccc2C(C2=NCCN2)O1 (single isomer, unassigned) [Example 94, 2-(5-bromo-3-ethylisochroman-1-yl)-4,5-dihydro-1H-imidazole]	0.55		25.1
CC1(C2=NCCN2)OCCc2c(C3CC3)cccc21 (stereo not drawn) [Example 24]	0.20	794	
CC1Cc2c(Br)cccc2C(C2=NCCN2)O1 (stereo not drawn) [Example 29, 2-(5-Bromo-3-methylisochroman-1-yl)-4,5-dihydro-1H-imidazole]	0.99		2
FC(F)c1cccc2c1CCOC2C1=NCCN1 (stereo not drawn) [Example 99, 2-(5-(Difluoromethyl)isochroman-1-yl)-4,5-dihydro-1H-imidazole]	0.73		12.6
CCC1OC(C2=NCCN2)c2cccc3cccc1c23 (stereo not drawn) [Example 105, 2-(3-Ethyl-1,3-dihydrobenzo[de]isochromen-1-yl)-4,5-dihydro-1H-imidazole]	0.66		39.8
c1cc(-c2ccoc2)c2c(c1)C(C1=NCCN1)OCC2 (stereo not drawn) [Example 54, 2-(5-(Furan-3-yl)isochroman-1-yl)-4,5-dihydro-1H-imidazole]	0.16	1000	
CC1Cc2c(Cl)cccc2C(C)(C2=NCCN2)O1 (stereo not drawn) [Example 28, 2-(5-Chloro-1,3-dimethylisochroman-1-yl)-4,5-dihydro-1H-imidazole]	0.64	1000	
COc1cccc2c1CCSC2C1=NCCN1 (stereo not drawn) [Example 70, 2-(5-Methoxyisothiochroman-1-yl)-4,5-dihydro-1H-imidazole]	0.07	2000	
COc1cc(C)c2c(c1)C(C1=NCCN1)OCC2 (stereo not drawn) [Example 61, 2-(7-Methoxy-5-methylisochroman-1-yl)-4,5-dihydro-1H-imidazole]	0.81		
CC1OC(C2=NCCN2)c2cccc3cccc1c23 (stereo not drawn) [Example 104, 2-(3-Methyl-1,3-dihydrobenzo[de]isochromen-1-yl)-4,5-dihydro-1H-imidazole]	0.95		3.16
FC(F)(F)Cc1cccc2c1CCOC2C1=NCCN1 (stereo not drawn) [Example 72, 2-(5-(2,2,2-Trifluoroethyl)isochroman-1-yl)-4,5-dihydro-1H-imidazole]	0.09	1580	
CC1COC(C2=NCCN2)c2cccc(Br)c21 (stereo not drawn) [Example 20, 2-(5-Bromo-4-methylisochroman-1-yl)-4,5-dihydro-1H-imidazole]	0.87		63.1
Cc1cccc2c1C[C@@H](C)OC2(C)C1=NCCN1 (stereo partly drawn) [Example 23, 2-((3R)-1,3,5-trimethylisochroman-1-yl)-4,5-dihydro-1H-imidazole]	0.68	316	
COc1cccc2c1CCOC2(C)C1=NCCN1 (stereo not drawn) [Example 69, 2-(5-Methoxy-1-methylisochroman-1-yl)-4,5-dihydro-1H-imidazole]	0.19		
CC[C@@H]1Cc2c(cccc2C(F)(F)F)C(C2=NCCN2)O1 (stereo partly drawn) [Example 16, 2-((3R)-3-ethyl-5-(trifluoromethyl)isochroman-1-yl)-4,5-dihydro-1H-imidazole]	0.51	50.1	
